23 compounds from patent publication US20230310428A1, “EGFR INHIBITOR AND PREPARATION METHOD AND USE THEREOF” (HONGYUN BIOTECH CO., LTD., priority 2020, published 2023) can be followed below.

Holding throughout (experiment): Growth inhibitory activity of compounds on BaF3 cell lines stably transfected with kinase (MTS, 48 h)
Common to all, as to assay type: cell-based

Assay [1] deals with T1, various mutants of kinase EGFR (BaF3 cell lines stably transfected with kinase) (Homo sapiens, UniProt P00533, L858R/T790M).
T1 construct: expressed in transfected cells; host or cells: BaF3
T1 sequence (P00533 25-1210 T790M/L858R): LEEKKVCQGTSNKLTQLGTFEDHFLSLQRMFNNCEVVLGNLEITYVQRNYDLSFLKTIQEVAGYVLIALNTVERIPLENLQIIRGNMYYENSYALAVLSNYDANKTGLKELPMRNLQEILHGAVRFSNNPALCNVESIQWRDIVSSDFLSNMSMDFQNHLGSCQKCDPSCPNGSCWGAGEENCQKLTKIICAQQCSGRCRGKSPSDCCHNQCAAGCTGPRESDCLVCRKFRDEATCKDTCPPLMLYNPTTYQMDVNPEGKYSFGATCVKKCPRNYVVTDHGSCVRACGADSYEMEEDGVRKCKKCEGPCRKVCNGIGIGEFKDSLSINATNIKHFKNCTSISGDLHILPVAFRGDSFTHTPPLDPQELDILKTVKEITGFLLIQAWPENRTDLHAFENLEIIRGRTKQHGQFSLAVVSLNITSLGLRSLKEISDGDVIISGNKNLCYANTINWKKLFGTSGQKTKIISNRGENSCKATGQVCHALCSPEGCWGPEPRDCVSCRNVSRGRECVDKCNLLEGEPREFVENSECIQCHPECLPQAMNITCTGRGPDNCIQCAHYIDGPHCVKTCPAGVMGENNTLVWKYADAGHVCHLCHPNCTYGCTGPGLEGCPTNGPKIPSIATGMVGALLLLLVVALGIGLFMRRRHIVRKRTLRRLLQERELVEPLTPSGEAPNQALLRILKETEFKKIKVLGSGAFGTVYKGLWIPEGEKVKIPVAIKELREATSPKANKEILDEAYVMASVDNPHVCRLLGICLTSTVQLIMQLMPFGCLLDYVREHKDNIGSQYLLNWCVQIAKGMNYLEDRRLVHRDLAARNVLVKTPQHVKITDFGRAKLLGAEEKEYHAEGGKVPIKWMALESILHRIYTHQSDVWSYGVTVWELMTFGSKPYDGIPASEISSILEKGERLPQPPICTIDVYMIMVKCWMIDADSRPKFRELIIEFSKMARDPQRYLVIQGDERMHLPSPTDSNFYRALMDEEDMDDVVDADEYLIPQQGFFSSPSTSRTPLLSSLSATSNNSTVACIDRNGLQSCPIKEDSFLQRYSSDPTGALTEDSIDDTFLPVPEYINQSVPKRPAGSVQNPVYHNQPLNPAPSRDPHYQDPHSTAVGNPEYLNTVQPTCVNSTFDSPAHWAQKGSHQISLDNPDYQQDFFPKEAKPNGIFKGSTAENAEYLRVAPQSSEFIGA
Particulars: BaF3 cell line stably transfected with EGFR L858R/T790M, read-out: L858R/ T790M growth inhibitory activity IC50. In short, it runs like this: (§1)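 OD at 490 nm after 1-4 h MTS/PES incubation gave growth inhibition relative to 0.1% DMSO negative and cell-free medium blank. Compounds: 8-point 1/3 dilution from 10 µM, 48 h, 37 °C. IC50 from inhibition curves; duplicates.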

Assay [2] deals with T2, various mutants of kinase EGFR (BaF3 cell lines stably transfected with kinase) (Homo sapiens, UniProt P00533, C797S/L858R/T790M).
T2 construct: expressed in transfected cells; host or cells: BaF3
Particulars: BaF3 cell line stably transfected with EGFR L858R/T790M/C797S, read-out: L858R/T790M/ C797S growth inhibitory activity IC50. In short, it runs like this: as §1

Assay [3] addresses T3, various mutants of kinase EGFR (BaF3 cell lines stably transfected with kinase) (Homo sapiens, UniProt P00533, T790M, form not given).
T3 construct: other: BaF3 cells stably transfected with EGFR Δ19Del/T790M; MTS, 48 h; other: BaF3 cell line stably transfected with EGFR Δ19Del/T790M; MTS, 48
As to conditions: BaF3 cell line stably transfected with EGFR Δ19Del/T790M, read-out: Δ19Del/ T790M growth inhibitory activity IC50. Summed up:
as §1

In assay [4] the target is T4, various mutants of kinase EGFR (BaF3 cell lines stably transfected with kinase) (Homo sapiens, UniProt P00533, L858R).
T4 construct: expressed in transfected cells; host or cells: BaF3
T4 sequence (P00533 25-1210 L858R): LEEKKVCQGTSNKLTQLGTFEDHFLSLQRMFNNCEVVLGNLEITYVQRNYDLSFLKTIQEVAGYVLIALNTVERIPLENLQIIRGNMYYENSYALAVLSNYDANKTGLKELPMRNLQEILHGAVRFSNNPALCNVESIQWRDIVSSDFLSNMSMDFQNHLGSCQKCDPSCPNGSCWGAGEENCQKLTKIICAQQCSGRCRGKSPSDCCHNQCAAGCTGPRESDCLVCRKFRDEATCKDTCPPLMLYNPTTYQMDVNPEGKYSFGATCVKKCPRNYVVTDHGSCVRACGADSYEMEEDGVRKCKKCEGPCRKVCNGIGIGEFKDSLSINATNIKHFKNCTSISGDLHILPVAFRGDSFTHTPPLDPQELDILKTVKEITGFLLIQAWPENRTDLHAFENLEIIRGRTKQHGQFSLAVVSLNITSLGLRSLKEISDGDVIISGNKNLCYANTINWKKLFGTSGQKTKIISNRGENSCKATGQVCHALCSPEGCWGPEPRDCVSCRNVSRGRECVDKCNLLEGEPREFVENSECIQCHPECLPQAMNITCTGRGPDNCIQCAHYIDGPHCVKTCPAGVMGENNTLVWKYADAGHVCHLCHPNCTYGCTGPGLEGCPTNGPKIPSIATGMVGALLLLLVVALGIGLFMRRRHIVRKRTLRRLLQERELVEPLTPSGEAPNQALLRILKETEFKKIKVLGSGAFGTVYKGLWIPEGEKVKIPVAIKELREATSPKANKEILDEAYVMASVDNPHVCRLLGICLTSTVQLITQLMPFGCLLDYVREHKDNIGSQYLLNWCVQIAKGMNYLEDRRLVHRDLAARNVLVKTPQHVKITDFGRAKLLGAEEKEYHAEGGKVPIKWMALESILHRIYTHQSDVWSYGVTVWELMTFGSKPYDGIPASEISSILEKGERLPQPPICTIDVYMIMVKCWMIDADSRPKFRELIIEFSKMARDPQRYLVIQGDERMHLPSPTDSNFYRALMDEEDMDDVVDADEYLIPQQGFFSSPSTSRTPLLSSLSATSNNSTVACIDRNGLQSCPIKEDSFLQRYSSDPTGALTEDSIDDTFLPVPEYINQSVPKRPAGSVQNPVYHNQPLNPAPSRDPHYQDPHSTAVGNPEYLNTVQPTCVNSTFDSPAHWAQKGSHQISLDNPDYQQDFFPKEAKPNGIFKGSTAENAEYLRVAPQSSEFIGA
Particulars: BaF3 cell line stably transfected with EGFR L858R, read-out: L858R growth inhibitory activity IC50. Summed up:
as §1

Assay [5] has as its target T5, various mutants of kinase EGFR (BaF3 cell lines stably transfected with kinase) (Homo sapiens, UniProt P00533).
T5 construct: other: BaF3 cells stably transfected with EGFR Δ19Del; MTS, 48 h; other: BaF3 cell line stably transfected with EGFR Δ19Del
As to conditions: BaF3 cell line stably transfected with EGFR Δ19Del, read-out: Δ19Del growth inhibitory activity IC50. In short, it runs like this:
as §1

Assay [6] deals with T6, various mutants of kinase EGFR (BaF3 cell lines stably transfected with kinase) (Homo sapiens, UniProt P00533, T790M/C797S, form not given).
T6 construct: other: BaF3 cells stably transfected with EGFR Δ19Del/T790M/C797S; MTS, 48; other: BaF3 cell line stably transfected with EGFR Δ19Del/T790M/C7
T6 sequence (P00533 with tags, fused parts or gaps DEL746-750/T790M/C797S, form open): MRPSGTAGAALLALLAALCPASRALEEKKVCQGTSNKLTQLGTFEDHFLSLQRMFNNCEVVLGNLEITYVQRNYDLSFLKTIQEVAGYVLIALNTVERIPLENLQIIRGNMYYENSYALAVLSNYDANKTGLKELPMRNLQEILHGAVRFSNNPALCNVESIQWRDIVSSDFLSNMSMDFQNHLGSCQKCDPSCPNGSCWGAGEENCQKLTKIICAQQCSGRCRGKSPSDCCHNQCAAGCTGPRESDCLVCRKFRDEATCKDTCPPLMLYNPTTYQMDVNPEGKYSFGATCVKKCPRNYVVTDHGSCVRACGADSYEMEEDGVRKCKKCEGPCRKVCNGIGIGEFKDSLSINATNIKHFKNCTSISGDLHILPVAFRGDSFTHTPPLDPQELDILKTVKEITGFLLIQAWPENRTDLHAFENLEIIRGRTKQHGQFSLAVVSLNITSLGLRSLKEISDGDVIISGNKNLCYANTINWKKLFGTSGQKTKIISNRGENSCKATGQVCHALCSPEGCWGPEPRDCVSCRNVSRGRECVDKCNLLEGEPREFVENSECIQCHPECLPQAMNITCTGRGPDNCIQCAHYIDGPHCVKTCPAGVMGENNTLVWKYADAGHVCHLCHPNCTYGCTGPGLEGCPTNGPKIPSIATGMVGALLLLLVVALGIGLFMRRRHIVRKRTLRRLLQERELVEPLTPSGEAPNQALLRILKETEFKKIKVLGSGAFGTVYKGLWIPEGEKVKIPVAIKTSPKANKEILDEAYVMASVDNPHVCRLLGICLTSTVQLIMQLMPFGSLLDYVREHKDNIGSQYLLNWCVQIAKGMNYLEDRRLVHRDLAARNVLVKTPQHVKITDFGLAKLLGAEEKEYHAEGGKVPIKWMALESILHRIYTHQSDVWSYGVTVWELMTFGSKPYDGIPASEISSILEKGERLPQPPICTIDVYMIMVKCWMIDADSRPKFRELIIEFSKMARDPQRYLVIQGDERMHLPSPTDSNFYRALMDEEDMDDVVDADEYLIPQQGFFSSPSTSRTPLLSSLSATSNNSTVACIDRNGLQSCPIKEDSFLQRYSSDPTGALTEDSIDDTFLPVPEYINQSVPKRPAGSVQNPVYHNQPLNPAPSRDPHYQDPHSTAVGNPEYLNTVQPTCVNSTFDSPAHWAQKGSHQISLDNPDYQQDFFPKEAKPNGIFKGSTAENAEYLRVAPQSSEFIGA
Particulars: BaF3 cell line stably transfected with EGFR Δ19Del/T790M/C797S, read-out: Δ19Del/T790M/ C797S growth inhibitory activity IC50. Summed up: as §1

Molecules are shown by their SMILES.

T3 sequence (P00533 with tags, fused parts or gaps DEL746-750/T790M, form open): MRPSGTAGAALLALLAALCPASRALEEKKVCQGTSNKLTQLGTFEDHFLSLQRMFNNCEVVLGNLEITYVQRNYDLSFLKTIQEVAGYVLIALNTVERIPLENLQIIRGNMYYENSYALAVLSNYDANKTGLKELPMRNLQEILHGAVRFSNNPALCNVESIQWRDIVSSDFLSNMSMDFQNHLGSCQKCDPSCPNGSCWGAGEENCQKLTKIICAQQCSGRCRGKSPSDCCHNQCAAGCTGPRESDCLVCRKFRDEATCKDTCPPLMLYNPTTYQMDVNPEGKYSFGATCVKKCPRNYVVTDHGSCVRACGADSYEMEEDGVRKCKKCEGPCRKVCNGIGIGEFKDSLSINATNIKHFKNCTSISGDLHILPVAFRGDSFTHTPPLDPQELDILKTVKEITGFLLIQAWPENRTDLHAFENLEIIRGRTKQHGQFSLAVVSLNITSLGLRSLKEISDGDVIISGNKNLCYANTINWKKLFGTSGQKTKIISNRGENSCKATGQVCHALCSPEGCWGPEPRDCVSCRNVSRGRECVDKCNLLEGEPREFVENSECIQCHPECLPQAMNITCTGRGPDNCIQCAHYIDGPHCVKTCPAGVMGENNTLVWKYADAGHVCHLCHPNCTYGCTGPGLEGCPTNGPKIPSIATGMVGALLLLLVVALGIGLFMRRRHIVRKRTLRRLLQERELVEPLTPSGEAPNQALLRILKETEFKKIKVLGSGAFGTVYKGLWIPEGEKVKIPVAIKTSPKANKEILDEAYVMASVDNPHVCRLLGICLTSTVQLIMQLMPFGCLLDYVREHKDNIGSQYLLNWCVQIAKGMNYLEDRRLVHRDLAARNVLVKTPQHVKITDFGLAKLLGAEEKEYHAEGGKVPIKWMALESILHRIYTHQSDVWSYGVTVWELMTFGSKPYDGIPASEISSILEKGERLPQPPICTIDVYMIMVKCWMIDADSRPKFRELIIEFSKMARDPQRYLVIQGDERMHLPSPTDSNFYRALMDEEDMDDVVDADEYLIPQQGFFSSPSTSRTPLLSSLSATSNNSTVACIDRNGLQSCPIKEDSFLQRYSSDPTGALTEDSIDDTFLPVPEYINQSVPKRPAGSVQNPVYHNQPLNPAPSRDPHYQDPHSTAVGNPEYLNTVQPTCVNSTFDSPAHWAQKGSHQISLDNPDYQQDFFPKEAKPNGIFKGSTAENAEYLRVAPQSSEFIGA

As to `CCn1ccc(Nc2ncc(Br)c(Nc3ccc4nccnc4c3N(C)S(C)(=O)=O)n2)n1` [Compound I-383], the IC50 in assay [1] is 50 to 500 nM; in assay [2] it was at most 50 nM; in assay [3], 50 to 500 nM; in assay [4], 50 to 500 nM; in assay [5], 50 to 500 nM; in assay [6], 50 to 500 nM.

Turning to `CC(C)n1ccc(Nc2ncc(Br)c(Nc3ccc4nccnc4c3N(C)S(C)(=O)=O)n2)n1` [Compound I-384], the IC50 was 50 to 500 nM in assay [1]; 50 to 500 nM in assay [2]; 50 to 500 nM in assay [3]; 500 to 2500 nM in assay [4]; 500 to 2500 nM in assay [5]; 50 to 500 nM in assay [6].

On to `Cc1cc(Nc2ncc(Br)c(Nc3ccc4nccnc4c3N(C)S(C)(=O)=O)n2)nn1C` [Compound I-385], for which the IC50 in assay [1] was 500 to 2500 nM; in assay [2] it was at most 50 nM; in assay [3] it was 500 to 2500 nM; in assay [4], 500 to 2500 nM; in assay [5], 500 to 2500 nM; in assay [6] it was 50 to 500 nM.

For the compound `CCn1cc(Nc2ncc(Br)c(Nc3ccc4nccnc4c3N(C)S(C)(=O)=O)n2)cn1` [Compound I-386], the IC50 is 50 to 500 nM in assay [1]; 50 to 500 nM in assay [2]; 50 to 500 nM in assay [3]; 50 to 500 nM in assay [4]; 50 to 500 nM in assay [5]; at most 50 nM in assay [6].

With `CCn1cc(Nc2ncc(Br)c(Nc3ccc4nccnc4c3N(C)S(C)(=O)=O)n2)c(C)n1` [Compound I-387], the IC50 lay in the range of 50 to 500 nM in assay [1]; 50 to 500 nM in assay [2]; 500 to 2500 nM in assay [3]; 500 to 2500 nM in assay [4]; 500 to 2500 nM in assay [5]; 50 to 500 nM in assay [6].

For `CC(C)n1cc(Nc2ncc(Br)c(Nc3ccc4nccnc4c3N(C)S(C)(=O)=O)n2)cn1` [Compound I-388], the IC50 was at most 50 nM in assay [1]; at most 50 nM in assay [2]; 50 to 500 nM in assay [3]; 50 to 500 nM in assay [4]; 50 to 500 nM in assay [5]; at most 50 nM in assay [6].

With `CCc1cc(Nc2ncc(Br)c(Nc3ccc4nccnc4c3N(C)S(C)(=O)=O)n2)c(OC)cc1F` [Compound I-389], the IC50 in assay [1] was 500 to 2500 nM; in assay [2], 50 to 500 nM; in assay [3], 500 to 2500 nM; in assay [4], 500 to 2500 nM; in assay [5], 500 to 2500 nM; in assay [6] it was 500 to 2500 nM.

For `CCc1cc(Nc2ncc(Br)c(Nc3ccc4nccnc4c3N(C)S(C)(=O)=O)n2)c(OC)cc1NCCO` [Compound I-390], the IC50 in assay [1] was 50 to 500 nM; in assay [2], at most 50 nM; in assay [3], 50 to 500 nM; in assay [4] it was 50 to 500 nM; in assay [5] it was 500 to 2500 nM; in assay [6] it was 50 to 500 nM.

In the case of `CCc1cc(Nc2ncc(Br)c(Nc3ccc4nccnc4c3N(C)S(C)(=O)=O)n2)c(OC)cc1NCCN(C)C` [Compound I-391], the IC50 in assay [1] was 50 to 500 nM; in assay [2], at most 50 nM; in assay [3] it was 50 to 500 nM; in assay [4] it was 50 to 500 nM; in assay [5], 50 to 500 nM; in assay [6], at most 50 nM.

As for `CCc1cc(Nc2ncc(Br)c(Nc3ccc4nccnc4c3N(C)S(C)(=O)=O)n2)c(OC)cc1N(C)CCN(C)C` [Compound I-392], the IC50 in assay [1] was 50 to 500 nM; in assay [2], at most 50 nM; in assay [3], 50 to 500 nM; in assay [4], 50 to 500 nM; in assay [5], 50 to 500 nM; in assay [6] it was at most 50 nM.

With `CCc1cc(Nc2ncc(Br)c(Nc3ccc4nccnc4c3N(C)S(C)(=O)=O)n2)c(OC)cc1N1CCC(N2CCN(C)CC2)CC1` [Compound I-396], the IC50 was 50 to 500 nM in assay [1]; at most 50 nM in assay [2]; 50 to 500 nM in assay [3]; 50 to 500 nM in assay [4]; 50 to 500 nM in assay [5]; at most 50 nM in assay [6].

Regarding `CCc1cc(Nc2ncc(Br)c(Nc3ccc4nccnc4c3N(C)S(C)(=O)=O)n2)c(OC)cc1N1CCN(C2CN(C)C2)CC1` [Compound I-398], the IC50 in assay [1], in assay [2], in assay [3], in assay [4], in assay [5] and in assay [6] was at most 50 nM each time.

`CCc1cc(Nc2ncc(Br)c(Nc3ccc4nccnc4c3N(C)S(C)(=O)=O)n2)c(OC)cc1N1CCC2(CC1)CC(N(C)C)C2` [Compound I-399]: the IC50 in assay [1] was 50 to 500 nM; in assay [2] it was at most 50 nM; in assay [3], 50 to 500 nM; in assay [4] it was 50 to 500 nM; in assay [5], 50 to 500 nM; in assay [6], at most 50 nM.

Take `COc1cc(N2CCC(N3CCN(C)CC3)CC2)ccc1Nc1ncc(Br)c(Nc2ccc3nccnc3c2NS(C)(=O)=O)n1` [Compound I-401]: the IC50 was at most 50 nM in assay [1]; 50 to 500 nM in assay [2]; 50 to 500 nM in assay [3]; 50 to 500 nM in assay [4]; 50 to 500 nM in assay [5]; 50 to 500 nM in assay [6].

In the case of `COc1cc(N2CCC(N3CCN(C)CC3)CC2)c(C)cc1Nc1ncc(Br)c(Nc2ccc3nccnc3c2NS(C)(=O)=O)n1` [Compound I-402], the IC50 in assay [1] is at most 50 nM; in assay [2] it was at most 50 nM; in assay [3], at most 50 nM; in assay [4], 50 to 500 nM; in assay [5], at most 50 nM; in assay [6], at most 50 nM.

As for `CCc1cc(Nc2ncc(Br)c(Nc3ccc4nccnc4c3NS(C)(=O)=O)n2)c(OC)cc1N1CCC(N2CCN(C)CC2)CC1` [Compound I-403], the IC50 in assay [1], in assay [2], in assay [3], in assay [4], in assay [5] and in assay [6] was at most 50 nM throughout.

As to `CCc1cc(Nc2ncc(Br)c(Nc3ccc4nccnc4c3NS(C)(=O)=O)n2)c(OC)nc1N1CCC(N2CCN(C)CC2)CC1` [Compound I-404], the IC50 in assay [1] is at most 50 nM; in assay [2], at most 50 nM; in assay [3], at most 50 nM; in assay [4], at most 50 nM; in assay [5], 50 to 500 nM; in assay [6], at most 50 nM.

For `CCc1cc(Nc2ncc(Br)c(Nc3ccc4nccnc4c3NS(C)(=O)=O)n2)c(OC(F)(F)F)cc1N1CCC(N2CCN(C)CC2)CC1` [Compound I-405], the IC50 in assay [1] was 50 to 500 nM; in assay [2] it was 50 to 500 nM; in assay [3], at most 50 nM; in assay [4] it was 50 to 500 nM; in assay [5] it was 50 to 500 nM; in assay [6] it was 50 to 500 nM.

For `COc1cc(N2CCC(N3CCN(C)CC3)CC2)c(C(C)C)cc1Nc1ncc(Br)c(Nc2ccc3nccnc3c2NS(C)(=O)=O)n1` [Compound I-406], the IC50 in assay [1], in assay [2], in assay [3], in assay [4], in assay [5] and in assay [6] was 50 to 500 nM each time.

For `COc1cc(N2CCC(N3CCN(C)CC3)CC2)c(C2CC2)cc1Nc1ncc(Br)c(Nc2ccc3nccnc3c2NS(C)(=O)=O)n1` [Compound I-407], the IC50 in assay [1], in assay [2], in assay [3], in assay [4], in assay [5] and in assay [6] was at most 50 nM in each case.

Turning to `COc1cc(N2CCC(N3CCN(C)CC3)CC2)c(CC2CC2)cc1Nc1ncc(Br)c(Nc2ccc3nccnc3c2NS(C)(=O)=O)n1` [Compound I-408], the IC50 was at most 50 nM in assay [1]; at most 50 nM in assay [2]; at most 50 nM in assay [3]; at most 50 nM in assay [4]; 50 to 500 nM in assay [5]; at most 50 nM in assay [6].

Consider `CCc1cc(Nc2ncc(Br)c(Nc3ccc4nccnc4c3NS(C)(=O)=O)n2)ccc1N1CCC(N2CCN(C)CC2)CC1` [Compound I-409], for which the IC50 in assay [1], in assay [2], in assay [3], in assay [4], in assay [5] and in assay [6] was at most 50 nM each time.

Take `CCc1cc(Nc2ncc(Br)c(Nc3ccc4nccnc4c3NS(C)(=O)=O)n2)c(OC)cc1N1CCC(N(C)C)CC1` [Compound I-410]: the IC50 in assay [1], in assay [2], in assay [3], in assay [4], in assay [5] and in assay [6] was at most 50 nM each time.
